The values that follow come from US8883758B2, “3,5-disubstituted and 3,5,7-trisubstituted-3H-oxazolo and 3H-thiazolo[4,5-d]pyrimidin-2-one compounds and prodrugs thereof” (Anadys Pharmaceuticals, Inc., priority 2004, dated 2014).

In this assay the test system is human PBMCs. The experiment in a line: IFN-α induction from peripheral blood mononuclear cells (PBMC), IFN-α ELISA. In kind it is cell-based. The settings on record: for Emax: Homo sapiens, PBMC, percentage of the level of IFN-α induction by either 32 or 100 μM isatoribine, 24 hours compound exposure, read-out: IFN-α induction from PBMCs relative to isatoribine; for Difference in amount of IFN-α produced compared with isatoribine: 100 μM test agent. Here is the method:
Peripheral blood mononuclear cells (PBMCs) are prepared by standard methods from human blood and are primarily comprised of monocytes, NK cells, circulating dendritic cells and both T and B cells. Briefly, they are purified by density gradient centrifugation from a buffy coat, which is the component of whole blood that contains leukocytes and platelets. In turn, buffy coats are prepared by centrifuging whole blood and isolating the thin cream colored layer between the upper plasma layer and the lower red blood cell portion of the separated mixture.
Freshly collected donor buffy coats were obtained from the San Diego Blood Bank. PBMCs were isolated from the buffy coats using histopaque-1077 gradient (Sigma), essentially as described in the manufacturer's protocol. Buffy coats were transferred into 50 ml centrifuge tubes and PBS added to a total volume of 35 ml. Next 10 ml histopaque-1077 was underlayed at the bottom of each tube, which were then centrifuged at 259×g for 30 minutes at room temperature without brake in a 5804 R centrifuge (Eppendorf). The top PBS level from each tube was removed and discarded and the buffy coat layer transferred to a fresh tube. The total volume was made up to 50 ml with PBS and the tubes were then centrifuged for 10 minutes at 259×g at room temperature. The cells were washed an additional 3 times with PBS in this manner.
The cell (PBMC) pellet was then resuspended in 30-40 ml complete (RPMI 1640) media. PBMCs were seeded at either 2.5 or 7.5×10^6 cells/ml complete media (1× and 3× seedings, respectively) and allowed to rest overnight before compound exposure for 24 hours. The cells and media were then collected, centrifuged for 5 minutes at 735×g in a 5415 C microfuge (Eppendorf) at room temperature and the supernatant analyzed by IFN-α ELISA. […] Hereby incorporated by reference in their entireties are U.S. Pat. Nos. 5,041,426 and 4,880,784, and U.S. patent application Ser. No. 10/861,430 (U.S. Patent Application Publication No. US 2005/0070556), which disclose, inter alia, IFN-α induction of isatoribine.
Accordingly, relative activities of the compounds of the invention are expressed as a percentage of the level of IFN-α induction by either 32 or 100 μM isatoribine.
Human IFN-α ELISA (#KHC4012) was performed as described in Biosource protocol. However, to ensure that readings were within the linear range of detection, PBMC supernatant samples were typically diluted 1:3 (2.5×10^6 cells/ml seeding) or 1:15 (7.5×10^6 cells/ml seeding) and then analyzed together with undiluted supernatant samples. The concentration in each sample was calculated from the O.D. by reference to a standard curve.

Setting [1] is: 1× PBMC seeding, 100 μM test compound.

Structures are written as SMILES.

As to `C[C@@]1(O)[C@@H](CO)O[C@@H](n2c(=O)sc3c(=O)[nH]c(N)nc32)[C@@H]1O` [Compound 117, 5-Amino-3-(3′-C-methyl-β-D-ribofuranosyl)thiazolo[4,5-d]pyrimidine-2,7(3H,6H)-dione], the Emax was over 100%.
On to `Nc1nc2c(sc(=O)n2[C@H]2C[C@H](O)[C@@H](CO)O2)c(=O)[nH]1` [Compound 130, 5-Amino-3-(2′-deoxy-β-D-ribofuranosyl)-3H,6H-thiazolo[4,5-d]pyrimidine-2,7-dione], for which the Emax lay within 51 to 100%.
As for `Nc1nc2c(sc(=O)n2[C@@H]2O[C@H](CO)[C@H](O)[C@H]2O)c(=O)[nH]1` [Compound 134], the Emax is over 100%. In addition, the “IFN-α production compared with isatoribine” value under setting [1] is “significantly and substantially more IFN-α production”. The “IFN-α production compared with isatoribine” value (3× PBMC seeding, 32 μM) was “dramatically and unexpectedly outperform isatoribine”. Besides, the “Difference in amount of IFN-α produced compared with isatoribine” value (3× PBMC seeding) was “less clear-cut although visually apparent and statistically significant”.
As to `CC(=O)OC[C@H]1[C@@H](OC(C)=O)[C@H](n2c(=O)sc3c(=O)[nH]c(N)nc32)O[C@@H]1COC(C)=O` [Compound 147, (3′S)-5-Amino-3-(3′-acetoxymethyl-2′,5′-di-O-acetyl-3′-deoxy-β-D-ribofuranosyl)-3H,6H-thiazolo[4,5-d]pyrimidin-2,7-dione], the Emax is over 100%.
On the same count and under the same terms, next, `CC(=O)O[C@@H]1[C@@H](F)[C@@H](COC(=O)c2ccccc2)O[C@H]1n1c(=O)sc2c(=O)[nH]c(N)nc21` [Compound 152, (3′R)-5-Amino-3-(2′-O-acetyl-5′-O-benzoyl-3′-deoxy-3′-fluoro-β-D-xylofuranosyl)-3H,6H-thiazolo[4,5-d]pyrimidin-2,7-dione]: 11 to 50%; `C[C@]1(O)[C@@H](CO)O[C@@H](n2c(=O)sc3c(=O)[nH]c(N)nc32)[C@@H]1O` [Compound 141, 5-Amino-3-(3′-(S)-methyl, 2′,3′,5′-tri-hydroxy-β-D-xylofuranosyl)-3H,6H-thiazolo[4,5-d]pyrimidin-2-one]: 0 to 10%.
Consider `CC(=O)OC[C@H]1O[C@@H](n2c(=S)sc3c(=O)[nH]c(N)nc32)[C@H](OC(C)=O)[C@@H]1OC(C)=O` [Compound 32, 5-amino-2,3-dihydro-2-thioxo-3-(2′,3′,5′-tri-O-acetyl-β-D-ribofuranosyl)thiazolo[4,5-d]pyrimidin-7-(6H)-one], for which the Emax was 51 to 100%.
Same read-out and setting: next, `Nc1nc2c(sc(=O)n2[C@H]2CC[C@@H](CO)O2)c(=O)[nH]1` [Compound 165, 5-Amino-3-(2′,3′-dideoxy-β-D-ribofuranosyl)-3H,6H-thiazolo[4,5-d]pyrimidine-2,7-dione]: 11 to 50%; `CO[C@@H]1[C@@H](O)[C@H](n2c(=O)sc3c(=O)[nH]c(N)nc32)O[C@@H]1CO` [Compound 137, 5-Amino-3-(3′-(R)-Methoxy-β-D-xylofuranosyl)-3H,6H-thiazolo[4,5-d]pyrimidin-2-one]: 51 to 100%; `CC(=O)OC[C@H]1O[C@@H](n2c(=S)sc3c(=O)[nH]c(N)nc32)[C@H](OC(C)=O)[C@H]1OC(C)=O` [Compound 34, 5-amino-2,3-dihydro-2-thioxo-3-(2′,3′,5′-tri-O-acetyl-β-D-xylofuranosyl)thiazolo[4,5-d]pyrimidin-7-(6H)-one]: over 100%.
Still for that read-out and setting: with `CC(=O)OC[C@H]1O[C@@H](n2c(=O)sc3c(=O)[nH]c(N)nc32)[C@H](OC(C)=O)[C@H]1OC(C)=O` [Compound 133, 5-Amino-3-(2′,3′,5′-tri-O-acetyl-β-D-xylofuranosyl)-3H,6H-thiazolo[4,5-d]pyrimidin-2-one] the figure was over 100%; with `Nc1nc2c(sc(=O)n2[C@@H]2O[C@H](CO)[C@H](F)[C@H]2O)c(=O)[nH]1` [Compound 153, (3′R)-5-Amino-3-(3′-deoxy-3′-fluoro-β-D-xylofuranosyl)-3H,6H-thiazolo[4,5-d]pyrimidin-2,7-dione], over 100%.
On the same count and under the same terms, next, `Nc1nc2c(sc(=S)n2[C@@H]2O[C@H](CO)[C@@H](O)[C@H]2O)c(=O)[nH]1` [Compound 33, 5-amino-2,3-dihydro-2-thioxo-3-β-D-ribofuranosyl-thiazolo[4,5-d]pyrimidin-7(6H)-one]: 0 to 10%; `CC(=O)OCC(OC(C)=O)[C@H]1O[C@@H](n2c(=O)sc3c(=O)[nH]c(N)nc32)[C@H](OC(C)=O)[C@H]1OC(C)=O` (stereo partly drawn) [Compound 142, 5-Amino-3-(5′-(1,2-diacetoxy-ethyl), 2′,3′-di-O-acetyl-β-D-glucofuranosyl)-3H,6H-thiazolo[4,5-d]pyrimidin-2-one]: 0 to 10%.
Consider `C=C1[C@@H](O)[C@H](n2c(=O)sc3c(=O)[nH]c(N)nc32)O[C@@H]1CO` [Compound 132, 5-Amino-3-(3′-deoxy-3′-methylidene-β-D-ribofuranosyl)-3H,6H-thiazolo[4,5-d]pyrimidine-2,7-dione], for which the Emax is over 100%.
Regarding `CCCCCCn1c(=O)sc2c(=O)[nH]c(N)nc21` [Compound 157, 5-Amino-3-hexyl-3H,6H-thiazolo[4,5-d]pyrimidine-2,7-dione], the Emax was in the range of 0 to 10%.
Still for that read-out and setting: with `CC(=O)OC[C@@H]1C[C@@H](OC(C)=O)[C@H](n2c(=O)sc3c(=O)[nH]c(N)nc32)O1` [Compound 121, 5-Amino-3-(2′,5′-di-O-acetyl-3′-deoxy-β-D-ribofuranosyl)-3H,6H-thiazolo[4,5-d]pyrimidine-2,7-dione] the figure was over 100%.
Regarding `Nc1nc2c(sc(=O)n2[C@@H]2O[C@H](CO)C[C@H]2O)c(=O)[nH]1` [Compound 122, 5-Amino-3-(3′-deoxy-β-D-ribofuranosyl)-3H,6H-thiazolo[4,5-d]pyrimidine-2,7-dione], the Emax was over 100%. Further, the “IFN-α production compared with isatoribine” value under setting [1] is “significantly and substantially more IFN-α production”. In addition, the “IFN-α production compared with isatoribine” value (3× PBMC seeding, 32 μM) was “dramatically and unexpectedly outperform isatoribine”. For the same molecule, under “3× PBMC seeding”, the “Difference in amount of IFN-α produced compared with isatoribine” value was “less clear-cut although visually apparent and statistically significant”.
As to `Nc1nc2c(sc(=O)n2[C@@H]2O[C@H](CO)[C@@H](CO)[C@H]2O)c(=O)[nH]1` [Compound 148, (3′S)-5-Amino-3-(3′-deoxy-3′-hydroxymethyl-β-D-ribofuranosyl)-3H,6H-thiazolo[4,5-d]pyrimidin-2,7-dione], the Emax was in the range of 0 to 10%.
